# Data as given in patent publication US6339082B1, “Tricyclic compounds, preparation method and said method intermediates, application as medicines and pharmaceutical compositions containing same” (Aventis Pharma S.A., priority 1997, dated 2002).
# Molecular target: human αvβ3 receptor (Homo sapiens, UniProt P05106+P06756)
# Assay: Bond displacement Vitronectin/Vitronectin Receptor (αvβ3), binding competition test Vn/VR
# Conditions: human vitronectin coated plates, 3 hours at ambient temperature
# Protocol: 1—Study by the Products of the Invention of the Bond Displacement: Vitronectin/Vitronectin Receptor (αvβ3) 96-well MaxiSorp plates are coated overnight at 4° C., with 100 μl of human Vitronectin (cf Yatohgo et al. Cell., Structure and fraction 13: 281-292 (1988)) at 2 μg/ml, (Dilution in coating buffer).
# The next day, the wells are emptied and the ligands (Vitronectin) are then fixed (see fixation buffer) for 1 hour at ambient temperature under gentle agitation.
# The wells are washed six times (see washing buffer), then the following are added per well and in this order:
# 40 μl of incubation buffer, 10 μl of the dilution of the product to be tested, (the products are diluted in a 50/50 mixture of DMSO—H2O) 50 μl of human αvβ3 receptor (cf Pytela et al. Methods Enzymol (1987)144:475) (dilution in incubation buffer, adapted according to the batch of receptor and according to the ligand).
# The ligand, the human αvβ3 receptor and the products to be studied are incubated for 3 hours at ambient temperature under gentle agitation.
# The wells are again washed six times, then incubated for 2 hours at ambient temperature under gentle agitation, in the presence of 100 μl of 4B12-HRP antibody, anti-receptor coupled to a peroxidase (the 4B12-HRP antibody is diluted in incubation buffer. The dilution is adapted according to the batch of receptor).
# The wells are then washed six times before measurement of ligand-receptor bond is carried out using a peroxidase developer kit (TMB Microwell Peroxidase Substrate System Kirkegaard: Ref. cat. 50-76-00).
# This kit contains a flask A of substrate (3,3′,5,5′-tetramethylbenzidine at 0.4 g/l) and a flask B (H2O2 at 0.02% in Citrate/Citric acid buffer). Extemporaneously, one volume of A is mixture with one volume of B, then the reaction mixture is distributed at the rate of 100 μl/well. The enzymatic reaction develops in 12′ for Vitronectin/αvβ3, then its development is stopped by the addition of 100 μl of 1M phosphoric acid.
# The optical density is measured at 450 nm. […]
# coating buffer: 0.05 M Carbonate, NaOH pH 9.6 fixation buffer: PBS containing 0.5% of BSA (pH 7.4) washing buffer: PBS containing 0.05% of Tween 20 (pH 7.4)
# Expression of the results:
# The following curve is plotted: the percentage of bond of human vitronectin as a function of the logarithm of the concentration of each product tested.
# For each product the IC50 is determined according to the following formula:
# BO=Maximum bond in the absence of any product Bmin=Minimum bond in the presence of the highest concentration of product.
row,IC50 [nM],Structure (SMILES)
1,16,"COc1c(C(=O)NCC(NC(=O)OCc2ccccc2)C(=O)O)cc2c(c1OC)C1=C(CCC1)C(=NNC1=NCCN1)CC2 (racemic) [EX. 1, 3-[[[4-[(4,5-dihydro-1H-imidazol-2-yl)hydrazono]-9,10-dimethoxy-1,2,3,4,5,6-hexahydro-8-benz[e]azulenyl]-carbonyl]amino]—N-[(phenylmethoxy)carbonyl]-DL-alanine]"
2,19,"COc1c(C(=O)NCC(NC(=O)OCc2ccccc2)C(=O)O)cc2c(c1OC)C1=C(CCC1)C(=NNC1=NCCCN1)CC2 (racemic) [EX. 2, 3-[[[9,10-dimethoxy-1,2,3,4,5,6-hexahydro-4-[(1,4,5,6-tetrahydropyrimidin-2-yl)]-hydrazono]-8-benz[e]azulenyl]carbonyl]amino]-N-[(phenylmethoxy)carbonyl]-DL-alanine]"
3,100,"O=C(O)CC(NC(=O)c1ccc2c(c1)CCC(=NNC1=NCCN1)C1=C2CCC1)c1cccnc1 (stereo not drawn) [EX. 3, beta-[[[4-[(4,5-dihydro-1H-imidazol-2-yl) hydrazono]-1,2,3,4,5,6-hexahydro-8-benz[e]azulenyl]-carbonyl]-amino]-3-pyridine-3-yl-propanoic acid]"
4,62,O=C(O)CC(NC(=O)c1ccc2c(c1)CCC(=NNC1=NCCN1)C1=C2CCC1)c1ccc2c(c1)OCO2 (stereo not shown) [EX. 4]
